According to patent US20230134428A1, “FUSED HETEROARYL COMPOUNDS, AND METHODS THEREOF FOR TREATING DISEASES, DISORDERS, AND CONDITIONS RELATING TO ABERRANT FUNCTION OF A SODIUM CHANNEL” (Praxis Precision Medicines, Inc., priority 2016, published 2023):

biological target: T1, human NaV1.6 (hNaV1.6) (Homo sapiens, UniProt Q9UQD0); test: Modulation of late sodium current (INaL), PatchXpress electrophysiology; format: cell-based; settings: HEK293, read-out: INaL v1.6 (1 µM, % Inhibition)
T1 construct: expressed in transfected cells; host or cells: HEK-293 (G418 selection)
Method: Functional characterization of exemplary compounds to modulate INaL expressed by the NaV1.6 voltage-gated sodium channel was accomplished using the PatchXpressTM high throughput electrophysiology platform (Molecular Devices, Sunnyvale, CA). HEK-293 cells expressing recombinant, human NaV1.6 (hNaV1.6)were grown in DMEM/high-glucose Dulbecco's modified, 10% FBS, 2 mM sodium pyruvate, 10 mM HEPES and 400 μg/mL G418. Cells were grown to 50% - 80% confluency prior to harvesting. Trypsinized cells were washed, allowed to recover for 1 hour and then resuspended in extracellular recording solution at a concentration of 1 × 10^6 cells/ml. The onboard liquid handling facility of the PatchXpress was used for dispensing cells and applying test compounds. Nav late currents were evoked by the application of 300 nM ATX-II. […] INaL amplitude and stability were determined by analyzing the mean current amplitude over the final 20 ms of […] pulse. […] Percent steady-state inhibition of INaL was calculated as: [([…])]*100, where INaL_compound and INaL _control represent INaL recorded in the presence or absence of compound, respectively.

T1 sequence (Q9UQD0 whole entry): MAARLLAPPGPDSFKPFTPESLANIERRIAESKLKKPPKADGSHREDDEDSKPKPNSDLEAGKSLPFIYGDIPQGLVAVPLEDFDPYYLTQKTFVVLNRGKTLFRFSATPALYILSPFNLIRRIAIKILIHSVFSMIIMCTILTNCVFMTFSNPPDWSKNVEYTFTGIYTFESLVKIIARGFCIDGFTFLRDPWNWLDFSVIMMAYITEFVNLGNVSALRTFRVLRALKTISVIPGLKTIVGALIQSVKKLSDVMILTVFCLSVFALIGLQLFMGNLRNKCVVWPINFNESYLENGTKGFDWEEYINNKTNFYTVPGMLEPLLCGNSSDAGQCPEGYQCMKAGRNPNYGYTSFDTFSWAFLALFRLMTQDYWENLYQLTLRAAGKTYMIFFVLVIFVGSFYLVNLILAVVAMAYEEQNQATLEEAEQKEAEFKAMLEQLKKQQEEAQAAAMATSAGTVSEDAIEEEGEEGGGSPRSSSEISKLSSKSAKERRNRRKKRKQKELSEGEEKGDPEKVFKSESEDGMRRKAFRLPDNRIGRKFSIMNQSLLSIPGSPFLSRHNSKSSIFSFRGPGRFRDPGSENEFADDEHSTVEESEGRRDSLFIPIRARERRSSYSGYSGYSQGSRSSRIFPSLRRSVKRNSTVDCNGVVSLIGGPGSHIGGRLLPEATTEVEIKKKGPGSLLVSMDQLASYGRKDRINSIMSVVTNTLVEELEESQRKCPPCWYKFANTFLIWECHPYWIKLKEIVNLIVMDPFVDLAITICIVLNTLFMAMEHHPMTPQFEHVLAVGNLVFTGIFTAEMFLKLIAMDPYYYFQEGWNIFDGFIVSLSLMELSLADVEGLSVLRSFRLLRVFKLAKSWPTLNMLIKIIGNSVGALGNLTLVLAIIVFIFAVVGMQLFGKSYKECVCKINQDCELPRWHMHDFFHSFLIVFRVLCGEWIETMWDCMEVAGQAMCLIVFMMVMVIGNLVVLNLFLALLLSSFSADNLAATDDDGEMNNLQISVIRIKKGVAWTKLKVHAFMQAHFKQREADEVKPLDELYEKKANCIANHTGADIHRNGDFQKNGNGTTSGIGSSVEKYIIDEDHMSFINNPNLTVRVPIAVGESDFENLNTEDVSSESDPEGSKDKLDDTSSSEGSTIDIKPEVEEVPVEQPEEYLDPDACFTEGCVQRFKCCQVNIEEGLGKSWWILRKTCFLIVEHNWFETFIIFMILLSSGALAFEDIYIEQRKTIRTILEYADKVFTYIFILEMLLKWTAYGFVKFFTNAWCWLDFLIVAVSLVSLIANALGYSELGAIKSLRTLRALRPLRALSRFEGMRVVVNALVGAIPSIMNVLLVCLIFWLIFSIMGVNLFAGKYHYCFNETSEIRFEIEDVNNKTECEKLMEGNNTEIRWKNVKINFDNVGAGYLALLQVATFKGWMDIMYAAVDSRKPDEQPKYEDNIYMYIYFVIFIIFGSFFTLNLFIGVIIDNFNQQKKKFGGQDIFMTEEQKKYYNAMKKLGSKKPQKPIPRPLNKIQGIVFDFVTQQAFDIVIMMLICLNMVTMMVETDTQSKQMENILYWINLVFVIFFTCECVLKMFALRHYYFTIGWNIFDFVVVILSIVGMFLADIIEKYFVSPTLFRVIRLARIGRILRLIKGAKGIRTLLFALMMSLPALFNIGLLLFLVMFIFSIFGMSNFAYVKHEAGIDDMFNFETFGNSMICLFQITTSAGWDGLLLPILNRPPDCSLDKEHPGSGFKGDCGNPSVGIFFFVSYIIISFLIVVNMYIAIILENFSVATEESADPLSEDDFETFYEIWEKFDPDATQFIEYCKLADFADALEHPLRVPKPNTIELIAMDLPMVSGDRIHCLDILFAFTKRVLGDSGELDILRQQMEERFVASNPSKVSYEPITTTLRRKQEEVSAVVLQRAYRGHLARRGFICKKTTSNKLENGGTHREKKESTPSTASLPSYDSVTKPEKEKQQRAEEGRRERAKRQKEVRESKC

Compared with Fc1cc(-c2cn3c(C(F)(F)F)ncc3cn2)cnc1OCC(F)(F)F [Compound 23, 6-[5-fluoro-6-(2,2,2-trifluoroethoxy)-3-pyridyl]-3-(trifluoromethyl)imidazo[1,5-a]pyrazine], N#Cc1nc(C(F)(F)F)n2cc(-c3ccc(OCC(F)(F)F)nc3)ccc12 [Compound 19] is higher in inhibition at 1 µM: 30 to 70% for the first, over 70% for the second.

Compared with N#Cc1nc(C(F)(F)F)n2cc(-c3ccc(C4(C#N)CC4)cc3)ccc12 [Compound 20], N#Cc1nc(C(F)F)n2cc(-c3ccc(OC(F)(F)F)cc3)ccc12 [Compound 21] is higher in inhibition at 1 µM: under 30% for the first, 30 to 70% for the second.

FC1(F)CC(c2ncc3ncc(-c4ccc(OC(F)(F)F)cc4)cn23)C1 [Compound 24] and FC(F)(F)c1ccc(-c2cnc3cnc(C(F)(F)F)n3c2)cc1 [Compound 18] cannot be ordered by inhibition at 1 µM: under 30% for the first, under 30% for the second.

COCc1cc(OC(F)(F)F)ccc1-c1cnc2cnc(C(F)(F)F)n2c1 [Compound 12] gave an inhibition at 1 µM of 30 to 70%.

same assay, conditions: HEK293; 1 µM compound; HEK-293 cells expressing hNaV1.6; late current evoked by 300 nM ATX-II; read-out: INaL v1.6 (1 µM, % Inhibition)

FC(F)(F)COc1ccc(-c2ccc3cnc(C(F)(F)F)n3c2)cn1 [Compound 2] and FC(F)(F)Oc1ccc(-c2cnc3cnc(C(F)(F)F)n3c2)cc1 [Compound 8] fall in the same range of inhibition at 1 µM: 30 to 70% for the first, 30 to 70% for the second.

First: Cc1nc(C(F)(F)F)n2cc(-c3ccc(OC(F)(F)F)cc3)cnc12 [Compound 14]
Second: N#Cc1nc(C(F)(F)F)n2cc(-c3ccc(OC(F)(F)F)cc3)cnc12 [Compound 11]
The inhibition at 1 µM of the first is higher: 30 to 70% for the first, under 30% for the second.

First: N#Cc1nc(C(F)(F)F)n2cc(-c3cnc(OCC(F)(F)F)c(F)c3)ncc12 [Compound 31, 6-[5-fluoro-6-(2,2,2-trifluoroethoxy)-3-pyridyl]-3-(trifluoromethyl)imidazo[1,5-a]pyrazine-1-carbonitrile]
Second: N#Cc1nc(C(F)(F)F)n2cc(-c3cnc(OCC(F)(F)F)c(F)c3)ccc12 [Compound 33, 6-[5-fluoro-6-(2,2,2-trifluoroethoxy)-3-pyridyl]-3-(trifluoromethyl)imidazo[1,5-a]pyridine-1-carbonitrile]
The inhibition at 1 µM of the first is lower: 30 to 70% for the first, over 70% for the second.

COCc1cc(OC(F)(F)F)ccc1-c1cn2c(C(F)(F)F)ncc2cn1 [Compound 15] and COCc1cc(OC(F)(F)F)ccc1-c1cn2c(C(F)(F)F)nc(C#N)c2cn1 [Compound 28] cannot be ordered by inhibition at 1 µM: over 70% for the first, over 70% for the second.

N#CC1(c2ccc(-c3ccc4cnc(C(F)(F)F)n4c3)cc2)CC1 [Compound 4] and N#CC1(c2ccc(-c3cn4c(C(F)(F)F)ncc4cn3)cc2)CC1 [Compound 22] fall in the same range of inhibition at 1 µM: 30 to 70% for the first, 30 to 70% for the second.

N#Cc1nc(C(F)(F)F)n2cc(-c3ccc(OC(F)(F)F)cc3)ncc12 [Compound 27] and N#Cc1nc(C(F)(F)F)n2cc(-c3ccc(C(F)(F)F)cc3)ncc12 [Compound 29] cannot be ordered by inhibition at 1 µM: over 70% for the first, over 70% for the second.

First: COc1cc(OC(F)(F)F)ccc1-c1ccc2cnc(C(F)(F)F)n2c1 [Compound 1]
Second: FC(F)(F)Oc1ccc(-c2cn3c(C(F)(F)F)ncc3cn2)cc1 [Compound 7]
The inhibition at 1 µM of the first is higher: over 70% for the first, 30 to 70% for the second.

Compared with COCc1cc(OC(F)(F)F)ccc1-c1ccc2c(C#N)nc(C(F)(F)F)n2c1 [Compound 16], N#Cc1nc(C(F)(F)F)n2nc(-c3ccc(OC(F)(F)F)cc3)ccc12 [Compound 25] is lower in inhibition at 1 µM: over 70% for the first, under 30% for the second.

Compared with N#Cc1nc(C2CC2(F)F)n2cc(-c3ccc(OC(F)(F)F)cc3)ccc12 (stereo not shown) [Compound 30], FC(F)(F)Oc1ccc(-c2ccc3cnc(C4CC4(F)F)n3c2)cc1 (stereo not shown) [Compound 26] is lower in inhibition at 1 µM: over 70% for the first, 30 to 70% for the second.

COC(C)(C)c1ccc(-c2ccc3cnc(C(F)(F)F)n3c2)cc1 [Compound 3] and FC(F)(F)Oc1ccc(-c2ccc3cnc(C(F)(F)F)n3n2)cc1 [Compound 9] fall in the same range of inhibition at 1 µM: 30 to 70% for the first, 30 to 70% for the second.

FC(F)c1ncc2ncc(-c3ccc(OC(F)(F)F)cc3)cn12 [Compound 10] and N#CC1(c2ccc(-c3cnc4cnc(C(F)(F)F)n4c3)cc2)CC1 [Compound 13] cannot be ordered by inhibition at 1 µM: under 30% for the first, under 30% for the second.

Compared with COc1cc(C2(C#N)CC2)ccc1-c1cnc2cnc(C(F)(F)F)n2c1 [Compound 17], Fc1cc(-c2cnc3cnc(C(F)(F)F)n3c2)cnc1OCC(F)(F)F [Compound 32, 3-[5-fluoro-6-(2,2,2-trifluoroethoxy)-3-pyridyl]-6-(trifluoromethyl)imidazo[1,5-a]pyrimidine] is higher in inhibition at 1 µM: under 30% for the first, 30 to 70% for the second.
